Numbering of substitutions follows the chain as printed.
Experiments:
AR W741L = biological target: T1, AR W741L (Homo sapiens, UniProt P10275, W742L); experiment: Transcription assay (ARE-luciferase reporter) in CV-1 cells, AR W741L; assay type: cell-based; settings: for Antagonist efficacy (RLU value at IC50), AR W741L: in competition with 250 nM DHT
T1 construct: expressed in transfected cells; host or cells: CV-1
T1 sequence (P10275 1-920 W742L): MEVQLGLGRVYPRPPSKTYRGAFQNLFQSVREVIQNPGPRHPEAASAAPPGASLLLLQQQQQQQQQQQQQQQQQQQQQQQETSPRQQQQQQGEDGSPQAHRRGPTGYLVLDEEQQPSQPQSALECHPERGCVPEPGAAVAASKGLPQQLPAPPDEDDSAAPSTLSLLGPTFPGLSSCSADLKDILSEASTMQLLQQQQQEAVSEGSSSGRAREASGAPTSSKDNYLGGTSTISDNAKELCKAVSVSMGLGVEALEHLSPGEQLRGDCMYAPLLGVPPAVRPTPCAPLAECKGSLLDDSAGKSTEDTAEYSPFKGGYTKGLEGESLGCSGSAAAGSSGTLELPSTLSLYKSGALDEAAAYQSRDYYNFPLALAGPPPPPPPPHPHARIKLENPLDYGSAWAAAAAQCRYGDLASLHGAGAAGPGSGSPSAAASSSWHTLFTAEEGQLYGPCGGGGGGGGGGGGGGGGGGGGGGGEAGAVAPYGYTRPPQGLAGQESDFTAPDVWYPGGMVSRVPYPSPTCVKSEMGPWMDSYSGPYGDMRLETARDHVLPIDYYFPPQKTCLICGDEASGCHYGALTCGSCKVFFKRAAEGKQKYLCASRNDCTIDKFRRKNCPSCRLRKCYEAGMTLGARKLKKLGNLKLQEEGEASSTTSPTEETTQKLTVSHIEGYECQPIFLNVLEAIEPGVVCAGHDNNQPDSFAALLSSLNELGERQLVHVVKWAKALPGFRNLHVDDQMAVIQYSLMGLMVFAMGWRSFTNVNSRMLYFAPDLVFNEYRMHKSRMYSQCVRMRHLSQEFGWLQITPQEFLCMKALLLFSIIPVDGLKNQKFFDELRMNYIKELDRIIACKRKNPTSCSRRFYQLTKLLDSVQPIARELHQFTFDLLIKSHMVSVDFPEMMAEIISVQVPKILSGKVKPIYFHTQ
Experimental: Twenty-four hours prior to transfection, CV-1 cells were seeded at a density of 45,000 cells per well in 24-well cell culture plates and grown in phenol red free Dulbecco's Modified Eagle Medium (DMEM) supplemented with 10% cosmic calf serum (COS). ARE-luciferase reporter and Renilla-Luc as the internal standard and a prokaryotic expression vector encoding the wild-type androgen receptor or mutant androgen receptor were transfected with Lipofectamine (Invitrogen) following manufacturer's protocol. Five hours after transfection, media was added containing the appropriate concentrations of ligands. The cells were allowed to incubate for 38 hours before harvesting by passive lysis buffer. Cell extracts were immediately assayed using the Dual Luciferase Assay (Promega) with a Perkin-Elmer Microbeta Luminometer. […] Dose-response data was analyzed by nonlinear regression analysis using GraphPad Prism.

AR W741C = biological target: T2, AR W741C (Homo sapiens, UniProt P10275, W742C); experiment: Competitive binding assay, [3H]DHT, transfected COS-7 cells, AR W741C; set-up: expressed in transfected cells; host or cells: COS-7; settings: 75 nM [3H]-DHT, read-out: Binding affinity (Ki), AR W741C
T2 sequence (P10275 1-920 W742C): T1 sequence (P10275 1-920 W742L) with L742C
Experimental: Twenty-four hours prior to transfection, COS-7 cells were seeded at a density of 70,000 cells per well in 24-well cell culture plates and grown in phenol red free Dulbecco's Modified Eagle Medium (DMEM) supplement with 10% cosmic calf serum (CCS). The cells were transfected with a prokaryotic expression vector encoding the wild-type androgen receptor or mutant androgen receptor using Lipofectamine (Invitrogen) following manufacturer's protocol. […] Cells were washed with PBS and harvested in 2% SDS, 10% glycerol, and 10 mM Tris, pH 6.8, and radioactivity determined by scintillation counting.

Compound | IC50 (AR W741L) [µM] | Antagonist efficacy (RLU value at IC50), AR W741L (AR W741L) | Ki (AR W741C) [µM]
CC(O)(CS(=O)(=O)c1ccccc1-c1ccccc1O)C(=O)Nc1ccc(C#N)c(C(F)(F)F)c1 (centres unmarked) [PAN41, N-(4-cyano-3-(trifluoromethyl)phenyl)-2-hydroxy-3-(2′-hydroxybiphenyl-2-ylsulfonyl)-2-methylpropanamide] | 5.8 ± 1.6 | (50% ± 1.0%) | 
CN(C)CCCOc1cccc(-c2ccccc2S(=O)(=O)CC(C)(O)C(=O)Nc2ccc(C#N)c(C(F)(F)F)c2)c1 (centres unmarked) [PAN52] | 12.2 ± 6.2 | (53% ± 5.2%) | 7.3
CN(C)CCCOc1cccc(Cc2ccccc2S(=O)(=O)CC(C)(O)C(=O)Nc2ccc(C#N)c(C(F)(F)F)c2)c1 (centres unmarked) [PAN22] | 3 ± 1.8 | (52% ± 4.9%) | 9.8
CN(C)CCCOc1ccc(-c2ccccc2S(=O)(=O)CC(C)(O)C(=O)Nc2ccc(C#N)c(C(F)(F)F)c2)cc1 (centres unmarked) [PAN62] | 11 ± 11 | (62% ± 12%) | 2.62

Reference: patent US8450374B2, “Pan-antagonists for the androgen receptor and androgen receptor mutants associated with anti-androgen withdrawal” (priority 2009, dated 2013)
